Reference: paper PMC6918687, “Pharmacological inhibition of TAK1, with the selective inhibitor takinib, alleviates clinical manifestation of arthritis in CIA mice” (Arthritis Research & Therapy, 2019)
Where two headings read alike, the source gives them in different places.

Key:
[1] = Pharmacokinetics of takinib by LC-MS in plasma and tissues; type: in vivo, C3-tag mice; details: C3 tagged mice; for half-life: C3-tag, mouse, ip
Description: C3-tag mice were injected intraperitoneally (i.p.) with 50/75mpk takinib and sacrificed at 0, 1 h, 2 h, 4 h, 8 h, 16 h, and 24 h. At the indicated time points, the heart, spleen, kidney, liver, tumor, blood, plasma, muscle, and lung were harvested. All samples were frozen and stored at − 80 °C. Before quantifying the takinib in serum, a standard curve was constructed using HS-219, a close structural analog of takinib that serves as an internal standard. This internal standard solution was used for tissue homogenization. LC-MS analysis was performed at the Duke Proteomics and Metabolomics Core Facility. The final concentration of takinib in the plasma was calculated per milliliter of plasma.
GraphPad Prism 7 was used for statistical analysis of clinical score comparisons, histological analysis, and plasma concentrations. Two-way ANOVA followed by Dunnett’s multiple comparison test was performed for mean clinical score sum (Fig. 1); weight change over time (Fig. 1); joint score sum for all joints, knees, and forepaw and hind paw (Figs. 2, 3); protein analysis (Figs. 5, 6); and cell survival (Fig. 6g). A linear regression of LC-MS data on takinib was used for PK studies. T½ was determined by non-linear one-phase decay curves. Student T tests were performed for periosteal bone width (Additional file 1: Figure S2) and cell survival (Fig. 6f, g). An alpha of 0.05 was used for all statistical analysis.

[2] = test system: TAK1; details: read-out: potency as inhibitor of TAK1; cited from earlier work
[3] = test system: RA-FLS cells; experiment: Phospho-kinase proteome array, TNF-stimulated RA-FLS cells; type: cell-based, human; details: takinib 10 μM, TNF 30 ng/mL 30 min
Description: Rheumatoid arthritis fibroblast-like synoviocytes (RA-FLS) cells were prepared from surgical synovial samples at the University of Michigan as previously described. Cells were isolated from 4 individual patients (3 female, 1 male) and passaged no more than 2 times before use. Cells were cultured in CRML media, 10% FBS, 1% penicillin-streptomycin (PS), and 1% glutamate.
Briefly, 10^6 cells were plated and either no treatment (naïve) or pretreated with takinib (10 μM) or vehicle (DMSO) for 30 min prior to stimulation with TNF (30 ng/mL) for 30 min at 37 °C in 5% CO2 for phospho-kinase assay (R&D Systems). NF-κB and cytokine assays were performed as previously described; however, cells were incubated for 24 h post-TNF (30 ng/mL) or LPS (10 ng/mL) stimulation.

[4] = test system: RA-FLS cells; experiment: Cell viability assay (Cell Titer Glo 2.0) in RA-FLS cells; type: cell-based
Description: RA-FLS cells were cultured and treated as previously described. Briefly, cells were plated at 80% confluency ~ 10^4 in 96-well plates and treated with either takinib at various concentrations or takinib + TNF (30 ng/mL) for 24 or 48 h and compared to vehicle-treated samples. Cell death was quantified using Cell Titer Glo 2.0 (Promega) according to the manufacturer’s protocol.

[5] = test system: CIA mice; experiment: Type II collagen-induced arthritis (CIA) mouse model: clinical arthritis score and body weight; type: in vivo, DBA/1 mice; details: for % Inhibition from Vehicle Disease (clinical score AUC): day 36
Description: The DBA/1 CIA model was conducted in accordance with The Guide for the Care & Use of Laboratory Animals (8th Edition) and therefore in accordance with all Bolder BioPATH IACUC approved policies and procedures. The Bolder Biopath IACUC approved a “blanket” IACUC protocol for this specific working protocol (BBP-001). No acceptable alternative test systems were identified for the animals used in this study. […] Clinical evaluation was performed under experimenter blinded conditions.
Collagen was prepared as a 4 mg/ml solution in 0.01 N acetic acid. Equal volumes of 4 mg/ml collagen and 5 mg/ml Freund’s complete adjuvant were emulsified by hand mixing with syringes for approximately 5 min, at which point a bead of this material holds its form when placed in water. On study days 0 and 21, animals were anesthetized with isoflurane and given intradermal injections of a total of 400 μg of type II collagen in Freund’s complete adjuvant at the base of the tail.
Mice were randomized by body weight into treatment groups on study day 18. Treatment was initiated following enrollment. On study day 36, the mice were euthanized for necropsy. Clinical scores were given for each of the paws (right front, left front, right rear, left rear) on study days 18–36. Experimenter was blinded from the treatment group during clinical evaluation and scoring.

half-life ([1]; heart, 50 mg/kg, 50 mpk i.p., read-out: half-life, heart (converted)): 16 min | half-life ([1]; heart, 75 mg/kg, 75 mpk i.p., read-out: half-life, heart (converted)): 14.4 min | half-life ([1]; muscle, 50 mg/kg, 50 mpk i.p., read-out: half-life, muscle (converted)): 8.82 min | half-life ([1]; muscle, 75 mg/kg, 75 mpk i.p., read-out: half-life, muscle (converted)): 5.64 min | half-life ([1]; plasma, 50 mg/kg, 50 mpk i.p., read-out: half-life, plasma (converted)): 15.4 min | half-life ([1]; plasma, 75 mg/kg, 50 or 75 mg/kg i.p., read-out: plasma (serum) clearance t½): 21 min | half-life ([1]; plasma, 75 mg/kg, 75 mpk i.p., read-out: half-life, plasma (converted)): 28.2 min | half-life ([1]; spleen, 50 mg/kg, 50 mpk i.p., read-out: half-life, spleen (converted)): 279 min | half-life ([1]; tumor, 50 mg/kg, 50 mpk i.p., read-out: half-life, tumor (converted)): 22.1 min | half-life ([1]; tumor, 75 mg/kg, 75 mpk i.p., read-out: half-life, tumor (converted)): 9.94 min | half-life, spleen ([1]; 50 mpk i.p., 50 mg/kg): 277.6 min
SMILES: CCCn1/c(=N/C(=O)c2cccc(C(N)=O)c2)[nH]c2ccccc21 [takinib]
IC50 [2]: ~9 nM | AMPKα1 phosphorylation, array signal, Mean ([3]; n=4): 111.9564 | AMPKα2 phosphorylation, array signal, Mean ([3]; n=4): 187.6195 | Akt 1/2/3 (pS473) array signal, Mean ([3]; n=4): 39.51 | Akt 1/2/3 (pT308) array signal, Mean ([3]; n=4): 122.7503 | CREB phosphorylation, array signal, Mean ([3]; n=4): 232.3464 | Chk-2 phosphorylation, array signal, Mean ([3]; n=4): 86.85 | EGF R phosphorylation, array signal, Mean ([3]; n=4): 60.59 | ERK1/2 phosphorylation, array signal, Mean ([3]; n=4): 95.02 | FAK phosphorylation, array signal, Mean ([3]; n=4): 142.7814 | Fgr phosphorylation, array signal, Mean ([3]; n=4): 41.73 | Fyn phosphorylation, array signal, Mean ([3]; n=4): 78.9 | GSK-3α/β phosphorylation, array signal, Mean ([3]; n=4): 191.6206 | HSP27 phosphorylation, array signal, Mean ([3]; n=4): 202.916 | HSP60 array signal, Mean ([3]; n=4): 40.313 | Hck phosphorylation, array signal, Mean ([3]; n=4): 119.1771 | JNK 1/2/3 phosphorylation, array signal, Mean ([3]; n=4): 100.6526 | Lck phosphorylation, array signal, Mean ([3]; n=4): 44.393 | Lyn phosphorylation, array signal, Mean ([3]; n=4): 69.34 | MSK1/2 phosphorylation, array signal, Mean ([3]; n=4): 239.7188 | PDGF Rβ phosphorylation, array signal, Mean ([3]; n=4): 50.4425 | PLC-γ1 phosphorylation, array signal, Mean ([3]; n=4): 34.4325 | PRAS40 phosphorylation, array signal, Mean ([3]; n=4): 244.5596 | PYK2 phosphorylation, array signal, Mean ([3]; n=4): 87.75 | RSK1/2/3 phosphorylation, array signal, Mean ([3]; n=4): 168.3928 | STAT2 phosphorylation, array signal, Mean ([3]; n=4): 200.5311 | STAT3 (pS727) array signal, Mean ([3]; n=4): 95.82 | STAT3 (pY705) array signal, Mean ([3]; n=4): 85.93 | STAT5a phosphorylation, array signal, Mean ([3]; n=4): 99.7 | STAT5a/b phosphorylation, array signal, Mean ([3]; n=4): 146.267 | STAT5b phosphorylation, array signal, Mean ([3]; n=4): 154.004 | STAT66 phosphorylation, array signal, Mean ([3]; n=4): 147.8809 | Src phosphorylation, array signal, Mean ([3]; n=4): 176.3574 | TOR phosphorylation, array signal, Mean ([3]; n=4): 129.6068 | WNK1 phosphorylation, array signal, Mean ([3]; n=4): 218.9865 | Yes phosphorylation, array signal, Mean ([3]; n=4): 124.3601 | c-Jun phosphorylation, array signal, Mean ([3]; n=4): 196.6019 | eNOS phosphorylation, array signal, Mean ([3]; n=4): 41.6005 | p27 phosphorylation, array signal, Mean ([3]; n=4): 40.56 | p38α phosphorylation, array signal, Mean ([3]; n=4): 59.41 | p53 (pS15) array signal, Mean ([3]; n=4): 47.48 | p53 (pS46) array signal, Mean ([3]; n=4): 126.377 | p53 (pS392) array signal, Mean ([3]; n=4): 83.6435 | p70 S6 Kinase (T389) array signal, Mean ([3]; n=4): 78.65 | p70 S6 Kinase (site not given) array signal, Mean ([3]; n=4): 110.3643 | β-Catenin array signal, Mean ([3]; n=4): 57.16 | number of human kinases with significantly reduced phosphorylation ([3]; 45 phospho-kinase proteins profiled): 21 | cell death vs vehicle control ([4]; 10 μM takinib alone, 48 h, p < 0.002): significant amount of cell death | cytotoxicity in the presence of TNF ([4]; takinib at varying doses + TNF 30 ng/mL, 24 and 48 h): Minimal cytotoxicity | % Inhibition from Vehicle Disease (clinical score AUC) ([5]; CIA DBA/1 mice, takinib 50 mg/kg i.p. daily): 32% | % Inhibition from Vehicle Disease (clinical score AUC) ([5]; CIA DBA/1 mice, takinib 50 mg/kg i.p. daily, listed as Takinib): 32% (p=0.08) | Mean Clinical Arthritic Score (AUC) ([5]; CIA DBA/1 mice, takinib 50 mg/kg i.p. daily, evaluated at day 36): 14.19 | less overall body weight loss compared to vehicle control ([5]; CIA mice, 50 mg/kg i.p. daily, at termination of the study, p = 0.009): 50% | mean daily clinical arthritis scores vs vehicle disease control ([5]; CIA mice, 50 mg/kg i.p. daily, days 30–36): significantly differed
